In ChEMBL document CHEMBL3044947, “Isolation of an insecticidal compound oxalicine B from Penicillium sp. TAMA 71 and confirmation of its chemical structure by X-ray crystallographic analysis” (2007):
Active and inactive are the calls of the source. The calls are words filed in the database; no cut-off is given here.

Key:
Plutella xylostella = test: Insecticidal activity against Plutella xylostella (diamondback moth) assessed as insect mortality at 500 ppm; format: functional, organism-based
Myzus persicae [1] = test: Insecticidal activity against Myzus persicae (green peach aphid) assessed as insect mortality at 100 ppm; format: functional
[2] = system: Frankliniella occidentalis; test: Insecticidal activity against Frankliniella occidentalis (western flower thrips) assessed as insect mortality at 500 ppm; format: functional
Myzus persicae [3] = test: Insecticidal activity against Myzus persicae (green peach aphid) assessed as insect mortality at 200 ppm; format: functional
Tetranychus urticae = test: Miticidal activity against Tetranychus urticae (two-spotted spider mite) assessed as insect mortality at 500 ppm; format: functional, organism-based
Botrytis cinerea = test: Fungicidal activity against Botryotinia fuckeliana at 500 ppm; format: functional, organism-based
Bemisia argentifolii = test: Insecticidal activity against Bemisia argentifolii assessed as insect mortality at 500 ppm; format: functional, organism-based
Podosphaera fuliginea = test: Fungicidal activity against Podosphaera fuliginea at 500 ppm; format: functional, organism-based
[4] = system: Frankliniella occidentalis; test: Antifeedant activity against Frankliniella occidentalis (western flower thrips) at 500 ppm; format: functional, organism-based

C=C(C)[C@]1(O)CC[C@]2(C)[C@H](CC=C(C)[C@]23Oc2cc(-c4cccnc4)oc(=O)c2[C@@H]3O)[C@@]12CCC(=O)OC2 [OXALICINE B]
Activity (Plutella xylostella): inactive | mortality at 100 ppm (Myzus persicae [1]): 82% | mortality at 500 ppm [2]: 32% | mortality at 200 ppm (Myzus persicae [3]): 87% | Activity (Tetranychus urticae): inactive | Activity (Botrytis cinerea): inactive | Activity (Bemisia argentifolii): inactive | Activity (Podosphaera fuliginea): inactive | Activity [4]: inactive
